Experiment [1] deals with Sodium-dependent serotonin transporter (Homo sapiens, UniProt P31645, C109A). The experiment is described as follows: Inhibition of [3H]5-HT uptake at human SERT C109A mutant transfected in HEK cells. Format: cell-based, HEK293.
Experiment [2] addresses Sodium-dependent serotonin transporter (Homo sapiens, UniProt P31645, G498C). The experiment is described as follows: Decrease in [3H]5-HT uptake at human SERT G498C mutant transfected in HEK293 cells. Format: cell-based.
Experiment [3] relates to Sodium-dependent serotonin transporter (Homo sapiens), P31645 [C109A]. The experiment is described as follows: Activation of inward current at human SERT C109A mutant expressed in Xenopus laevis oocytes. Format: cell-based. Particulars: Oocyte.
The test system is the same in experiment [4]. The experiment is described as follows: Blockade of leak current of human SERT C109A mutant expressed in Xenopus laevis oocytes assessed as outward current at 30 uM. Format: cell-based. The settings on record: Oocyte.

The source made the active and inactive calls. No cut-off for these calls is given here.

The text below walks through data of ChEMBL document CHEMBL1144518, “1-Methylpyridinium-4-(4-phenylmethanethiosulfonate) iodide, MTS-MPP+, a novel scanning cysteine accessibility method (SCAM) reagent for monoamine transporter studies” (Bioorg Med Chem, 2007).

For `C[n+]1ccc(-c2ccccc2)cc1`, the affinity in experiment [1], expressed as Ki, was 48 µM.
On to `C[n+]1ccc(-c2ccc(SS(C)(=O)=O)cc2)cc1`, for which the response in experiment [2] was half-maximal at 3.98 µM (EC50). Also, the affinity in experiment [1] corresponds to a Ki of 1300 µM. In experiment [3], the result was inactive. Moreover, the outcome in experiment [4] was Active.
Compound `C[N+](C)(C)CCSS(C)(=O)=O` had an EC50 in experiment [2] of 3.16 µM.

The term Ki denotes a dissociation constant, usually derived from enzyme kinetics or from competition with a known ligand. A high value points to a looser hold on the target. A word on the EC50: it is the concentration that produces a half-maximal response. High values mean a need for much substance, low ones an effect from little substance.
